According to patent publication US8951960B2, “Synergistic combination of DBNPA and polycyclic antibacterial peptide as biocide in bioethanol production” (Buckman Laboratories International, Inc., priority 2010, dated 2015):

Experiments:
[1] = tested on: Lactobacillus plantarum; assay: Corn mash ethanol fermentation infected with L. plantarum, treated with nonoxidizing biocide; format: cell-based; conditions: fermentation conditions typical of fuel-ethanol industry
Protocol: (§1) Experiments were conducted to evaluate the effectiveness of a nonoxidizing biocide as an antimicrobial agent for control of Lactobacillus infections in ethanol fermentation. The nonoxidizing biocide was BRONAM® 20 (20% 2,2-dibromo-3-nitrilopropionamide). The lactobacilli was L. plantarum. The yeast was Saccharomyces cereviseae. Corn mashes containing approximately 30% (w/w) dry solids were used.
For slurry preparation, the moisture of ground corn was determined gravimetrically using a moisture balance by measuring the mass loss that occurred upon drying. The amount of corn, deionized (DI) water, and enzyme needed to prepare 160 g of corn slurry at a total dry solids concentration of 30% (w/w) for each replicate was determined. […]
For fermentation, once the mash was cooled, the entire contents (approximately 160 g) of each Labomat beaker were transferred to a sterile 250-ml Erlenmeyer flask. The masses of the mash and flasks were recorded, and the mass of mash transferred to the fermentation flasks was calculated. […]
The L. plantarum culture was prepared for inoculation by growing throughout the day in 100-ml of MRS broth. […] The initial concentration of the bacteria was determined by plating serial dilutions of the culture on MRS agar containing cycloheximide and incubating at 32° C. for 2 days before counting colonies. […]

[2] = Persistence of intact biocide under fermentation tank conditions; format: physicochemical; conditions: conditions in the fermentation tank; based on laboratory work
Protocol: Under the conditions in the fermentation tank, DBNPA is expected to last intact only about 1-2 hours, based on laboratory work. The stillage, i.e., fermented unevaporated product (post “beer tank”) of distillation, is centrifuged, and dried (e.g., about 1 hour at about 250-300° F.), then the mixture is pumped over to a final tank where it is called the DDGS. DDGS is about ⅓ mass of the starting raw material for corn. The chemistry of DBNPA is not expected to endure and survive the centrifugation and heat of drying prior to entering distillers dried grains with solubles (DDGS) stage. In the corn-to-ethanol process, for example, DBNPA is expected to degrade to carbon dioxide and water vapor, and, as such, would have low environmental impact. […] The application of DBNPA avoids the use of antibiotics, which can remain stable throughout the process. The use of DBNPA makes the use of antibiotics unnecessary. The use of DBNPA is more economical since the cost of antibiotics (as the only treatment widely employed) can be relatively high and costly to the fermentation. […]

[3] = tested on: yeast (Saccharomyces cerevisiae); assay: Effect of biocide on fermentation yeast in corn fermentation; format: cell-based
Protocol: as §1
A 0.2-g/ml suspension of yeast (Saccharomyces cerevisiae; Ethanol Red; Fermentis, Marcq-en-Baroeul, France) was prepared in a sterile 250-ml flask. This suspension was incubated and mixed for 20 minutes at 40° C. before inoculation into the fermentation flasks. […]
Each flask was mixed with an overhead agitator and samples were collected for the following measurements: yeast cell counts, final concentrations of substrates (glucose, DP2, DP3, and DP4+, where “DPx” represent glucose oligomers with “x” subunits), fermentation products (ethanol, glycerol, lactic acid, and acetic acid), total dry solids, and dissolved dry solids, and the density of the beer liquid phase. […] Samples were prepared for yeast cell counts by diluting at a factor of 100 in deionized water and staining with methylene blue to estimate viability then counted microscopically using a hemacytometer. The final concentrations of substrates and fermentation products were determined by HPLC. […]

[4] = tested on: Lactobacillus fermentans; assay: Kull synergism test in 25% strength MRS broth, quantities producing endpoints; format: cell-based; conditions: Nisin alone, 37° C., 24 hours
Protocol: Lactobacilli MRS broth (25% strength) was prepared and dispensed in 10 ml amounts into test tubes and autoclaved for 20 minutes at 121° C. The biocides were added to the test tubes in the desired concentrations, and then 100 microliters of an overnight broth of Lactobacillus fermentans were added to the respective test tubes and incubated at 37° C. for 24 hours.
When the sum of QA/Qa and QB/Qb is greater than one, antagonism is indicated and when the sum is equal to one, additivity is indicated. When the sum of this value is less than one, synergism exists.

| Compound | effect on lactobacilli [1] | time the biocide lasts intact [2] [h] | effect on yeast [3] | Qa, concentration of Compound A acting alone which produced an endpoint ([4]; Example 2) [ppm] | Qa, concentration of Compound A acting alone which produced an endpoint ([4]; Example 3) [ppm] |
| --- | --- | --- | --- | --- | --- |
| N#CC(Br)(Br)C(N)=O [2,2-dibromo-3-nitrilopropionamide] | kills the bacteria (lactobacilli) | 1 to 2 | does not kill the yeast | – | – |
| Nisin | – | – | – | 1.0 | 1.0 |
